Here are results for 3 molecules from publication PMC6476306 (Biochemistry, 2017).

The assay addresses T1, S. aureus DnaG primase CTD (Staphylococcus aureus, UniProt P63964).
T1 sequence (P63964 463-605): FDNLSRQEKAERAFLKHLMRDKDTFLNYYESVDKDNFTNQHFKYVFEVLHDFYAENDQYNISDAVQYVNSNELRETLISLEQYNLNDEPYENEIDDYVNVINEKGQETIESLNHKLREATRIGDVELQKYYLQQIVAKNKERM
Nature of the assay: 2D 1H-15N HSQC NMR titration. In kind it is binding.

A word on the Kd: it is the equilibrium constant for the complex coming apart. Low readings indicate higher affinity, high ones lower affinity. The molecule `Nc1nc2c(ncn2COCCO)c(=O)[nH]1` [acycloguanosine] showed a Kd of more than 4 mM. For `Nc1ncnc2c1ncn2[C@@H]1O[C@H](CO)[C@@H](O)[C@H]1O` [adenosine], the Kd was more than 4 mM. As to `O=c1c(O)c(-c2cc(O)c(O)c(O)c2)oc2cc(O)cc(O)c12` [myricetin], the Kd was more than 4 mM.
